Common to all, as to assay: inhibition of tumour cell growth, NCI panel, 48 h
Assay [1] deals with KM12 colon.
Assay [2] concerns TK-10 renal.
The subject of assay [3] is SF-268 CNS.
Assay [4] deals with HOP-62 NSCLC.
Assay [5] relates to OVCAR-3 ovarian.
The subject of assay [6] is MDA-MB-231 breast.
The subject of assay [7] is NCI-H460 lung.
For assay [8], the system named is HL-60(TB) leukemia.
In assay [9] the test system is UACC-257 melanoma.
For assay [10], the system named is NCI-H522 lung.

Values joined by “and” are separate entries in the source; they are usually repeats but may differ in a detail not shown here. Equal values may be shown once.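 48-hour exposure; five concentrations; linearly interpolated endpoints. GI50 is the concentration that inhibits growth by half. TGI is the concentration that stops growth completely.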

This is an account of results in PubChem BioAssay (NCI).

For `C/C(=N\NC(=O)c1ccncc1)c1ccc(O)cc1O`, the GI50 in [1] was 8.59 µM; in assay [2], above 100 µM; in assay [3], 2.19 µM; in [4], 3.93 µM; in assay [5], 4.59 µM; in [6] it was 3.88 µM. Besides, the GI50 in [7] was 5 µM; in assay [8], 3.4 µM; in [9], 4.06 µM. The TGI in [1], in assay [2], in assay [3], in assay [4], in assay [5] and in assay [6] was above 100 µM each time. Moreover, the TGI in [7] is above 100 µM; in assay [8], 32.6 µM; in assay [9] it was 88.5 µM.
For the molecule `CCCN1CCN(c2ccc3nc(-c4ccc5nc(-c6ccc(OCC)c(OCC)c6)[nH]c5c4)[nH]c3c2)CC1`, the GI50 in assay [1] was 0.684 µM; in assay [2], 1.3 µM; in assay [3], 1.6 µM; in assay [4], 0.956 µM; in assay [5] it was 0.258 µM; in [6], 1.21 µM. The GI50 in [7] is 0.387 µM; in assay [8], 0.339 µM; in assay [9], 0.64 µM. Further, the TGI in [1] came out at 2.08 µM; in [2], 4.13 µM; in assay [3] it was 6.1 µM; in assay [4] it was 3.2 µM; in assay [5], 0.622 µM; in assay [6] it was 2.81 µM. For the same molecule, the TGI in assay [7] was 1.35 µM; in assay [8], 2.74 µM; in assay [9], 2.47 µM.
As to `CC[C@]12CCCN3CC[C@]4(C(=C(C(=O)OC)C1)Nc1ccccc14)[C@@H]32`, the GI50 was 16.7 µM in assay [1]; 19.9 µM in [2]; 18 µM in assay [3]; 15.6 µM in assay [4]; 17 µM in assay [5]; 15.5 µM in [6]. In addition, the GI50 in assay [10] was 13 µM; in assay [7], 18.1 µM; in [8], 21.9 µM; in assay [9], 16.7 µM. The TGI in [1] turned out to be 39.1 µM; in assay [2], 56.7 µM; in assay [3] it was 37.8 µM; in assay [4] it was 32.7 µM; in [5] it was 31.1 µM; in assay [6] it was 38.1 µM. Moreover, the TGI in [10] was determined as 30.3 µM; in [7] it was 38.3 µM; in assay [8] it was 52 µM; in assay [9] it was 42.2 µM.
Regarding `CC/C=C\C/C=C\C[C@H]1C/C=C2/C(=O)C=C[C@H]2C/C=C\CCC(=O)O1`, the GI50 is 2.52 µM in assay [1]; 4.72 µM in assay [2]; 3.31 µM in assay [3]; 3.94 µM in assay [4]; 2.11 µM in [5]; 4.65 µM in assay [6]. The GI50 in [10] was 1.83 µM; in assay [7], 3.1 µM; in assay [8], 3.55 µM. For the same molecule, the TGI was 5.7 µM in assay [1]; 12.9 µM in assay [2]; 10.4 µM in assay [3]; 10.6 µM in assay [4]; 5.01 µM in [5]; above 14.3 µM in [6]. Moreover, the TGI in [10] is 5.32 µM; in [7] it was 7.96 µM; in assay [8], 12.2 µM.
In the case of `Cc1nn(-c2ccc(Br)cc2)c(C)c1CC(=O)c1cc(O)ccc1O`, the GI50 in assay [1] was 5.91 µM; in assay [2] it was 15.5 µM; in assay [3], 5.6 µM; in assay [5], 12.9 µM; in assay [6] it was 5.35 µM; in assay [10] it was 16 µM. For the same molecule, the GI50 was 8.34 µM in assay [7], 11.9 µM in [8] and 11.2 µM in assay [9]. The TGI is above 50 µM in [1]; above 50 µM in [2]; 17.6 µM in assay [3]; 38.8 µM in assay [5]; 15 µM in assay [6]; above 50 µM in assay [10]. Also, the values for the TGI in [7], in [8] and in assay [9] were 19.3 µM, above 50 µM and 26.6 µM, respectively.
Regarding `CC(C)[C@@H]1CC[C@@H]2[C@@H]1[C@H](OC(=O)/C=C/c1ccccc1)[C@]1(C(C)C)C[C@@H](OC(=O)CO)[C@@]2(C)O1`, the GI50 was 7.07 µM in assay [1]; 6.46 µM in assay [2]; 4.02 µM in [3]; 6.45 µM in [4]; 6.69 µM in assay [5]; 5.38 µM in assay [6]. Further, the GI50 was 6.19 µM in assay [10], 6.15 µM in assay [7], 8.07 µM in [8] and 7.83 µM in assay [9]. In addition, the TGI in assay [1] was determined as 14.6 µM; in assay [2], 15.4 µM; in [3] it was 9.03 µM; in [4] it was 14.5 µM; in assay [5], 11.9 µM; in [6], 10.4 µM. Besides, the TGI worked out at 13.2 µM in assay [10], 11.7 µM in assay [7], 18.4 µM in assay [8] and 17.6 µM in assay [9].
As to `S=C(N/N=C(/c1ccccc1)c1ccccn1)Nc1cccc(Cl)c1`, the GI50 in assay [1] was 0.144 µM; in assay [2], 0.0277 µM; in assay [3], 2.33 µM; in assay [4], 2.26 µM; in assay [5], below 0.001 µM; in assay [10], 1.12 µM. Besides, the figures for the GI50 in [7], in assay [8] and in [9] were 0.612 µM, 0.0152 µM and 0.00172 µM, respectively. Further, the TGI in [1] is 3.55 µM and 6.75 µM; in assay [2], 2.41 µM and 6 µM; in [3], 16.6 µM; in assay [4], 4.18 µM and 17.7 µM; in assay [5], 1.98 µM and 4.59 µM; in assay [6], 2.27 µM. In addition, the TGI in assay [10] came out at 2.4 µM; in assay [7] it was 4.69 µM; in assay [8], 0.162 µM.
Turning to `O=C1c2ccccc2C(=O)c2c1ccc1c2OCO1`, the TGI in [1], in [2], in assay [3], in [4], in [5] and in assay [6] was above 100 µM throughout. In addition, the TGI in assay [10], in assay [8] and in assay [9] was above 100 µM throughout.
